Experimental data reported in patent US10611751B2, “Dopamine D1 receptor positive allosteric modulators” (Eli Lilly and Company, priority 2018, dated 2020).
Entries after “also recorded” stand apart in the source; their conditions may differ. Read-outs that look alike come from different tables or passages of the source. Marks after values point to notes of the source that are not given here.

What was measured:
human D1 receptor = human D1 receptor (Homo sapiens (Human), UniProt P21728); experiment: Human D1 Receptor PAM Assay (cAMP HTRF, potentiator mode with EC20 dopamine); format: cell-based; settings: for EC50: HEK293 cells expressing human D1 receptor, 12 nM dopamine (EC20), cAMP, read-out: Abs EC50; for Emax: fitted top of curve, 0% = EC20 dopamine, 100% = 5 μM dopamine, read-out: % Top (% Potentiation)
Excerpt: The PAM activity of the compounds of the present invention may be measured essentially as described in Svensson et al., An Allosteric Potentiator of the Dopamine D1 Receptor Increases Locomotor Activity in Human D1 Knock-in Mices without Casusing Stereotypy or Tachyphylaxis. J. Pharmacol. Exp. Ther. (2017) 360:117-128.
More specifically, HEK293 cells that stably express the human D1 receptor (Accession number NM_000794) are generated by gene transduction using the pBABE-bleo retroviral vector and selected with Zeocin™ (InvivoGen). At approximately 80% confluency, the cells are harvested using TrypLE™ Express (Gibco), suspended in FBS plus 8% DMSO, and stored in liquid nitrogen. On the day of the assay, cells are thawed and resuspended in STIM buffer (Hanks Balanced Salt Solution supplemented with 0.1% BSA, 20 mM HEPES, 500 μM IBMX, and 100 μM ascorbic acid).
Test compound is serially diluted (1:2) with DMSO into assay plates (ProxiPlate-384 Plus, PerkinElmer) using acoustic dispensing (Labcyte) to provide 20 concentrations for full response curves. […] Plates are incubated at room temperature for a total reaction time of 60 min.
cAMP production is quantified using HTRF® detection (Cisbio) according to the manufacturer's instructions. Generally, lysis buffer containing anti-cAMP cryptate (5 μL) and D2-conjugate (from HTRF® kit) (5 μL) is added to the wells, plates are incubated for an additional 60-90 min, and the time-resolved fluorescence is detected using an EnVision™ plate reader (PerkinElmer). Fluorescence data is converted to cAMP concentrations using a cAMP standard curve and analyzing using a 4-parameter non-linear logistic equation (Genedata Screener, version 13.0.5-standard). For potentiator mode concentration-response curves, results are expressed as percent of the window between a response at EC20 concentration of dopamine alone (normalized to 0%) and the maximum response to dopamine (defined by response to 5 μM dopamine, final concentration, normalized as 100%).
Absolute EC50 values are calculated based on the maximum and minimum responses of the control agonist (dopamine). The % Potentiation (% Top) is determined from the fitted top of the concentration response curve.

[1] = system: human D1 receptor knock-in mice; experiment: Basal (Habituated) Locomotor Activity; format: in vivo, mouse; settings: for Basal Locomotor Activity (Total Ambulations for 60 min), mean: male human D1 knock-in mice, N = 8/group; for Effect on basal movement / locomotor activation (in words): oral dose response, habituated human D1 knock-in mice
Experimental: Locomotor activity is measured using an automated system to track movement in mice. Monitoring of mouse locomotor activity behaviors take place in transparent plastic shoebox cages having dimensions of 45×25×20 cm, with a 1 cm depth of wood chips for absorbent bedding, and covered with a ventilated filtered plastic cage top. Cages were placed in a rectangular frame containing a grid of 12 photocell beams in an 8×4 configuration (Kinder Scientific, Poway, Calif.) that is positioned 2.5 centimeters from the floor of the cage for the detection of body movements (ambulations) and recorded by computer.
Male human D1 receptor knock-in mice are placed in chambers and allowed to habituate to the chambers for 60 min. During the habituation period, the mice show decreasing locomotion over time, as expected. Following administration of a compound of the invention, animal movement is found to increase in a dose-dependent fashion.
The mice are randomly assigned to treatment groups. In the dose response study, each mouse is placed individually into one of the locomotor activity boxes for a 60 min. habituation period. The mice are then dosed orally using test compound in a 20% hydroxypropyl-betacyclodextrin vehicle and using a 10 mL/kg dose volume. After dosing, the mice are placed back into the LMA boxes and the total number of ambulations is recorded per 10 min interval for each mouse over a 60 min measurement period. Statistical analysis is carried out using one-way ANOVA followed by post-hoc analysis using Dunnett's Comparison test.

[2] = Fraction unbound in plasma and brain, determined in vitro (equilibrium dialysis); format: in vitro ADME
Experimental: Example 1 is orally dosed to male mouse from 1 mg/kg to 30 mg/kg in fed condition, and the plasma and brain concentration are determined 1.5 hr post-dose. The fraction unbound of the compound is determined in vitro as described previously (Zamek-Gliszczynski M J, Ruterbories K J, Ajamie R T, Wickremsinhe E R, Pothuri L, Rao M V, Basavanakatti V N, Pinjari J, Ramanathan V K, Chaudhary A K (2011) Validation of 96-well equilibrium dialysis with non-radiolabeled drug for definitive measurement of protein binding and application to clinical development of highly-bound drugs. J Pharm Sci 100: 2498-2507). The ratio (Kpuu) of unbound brain concentration (Cu,brain) vs. unbound plasma concertation (Cu,plasma) is determined as described previously (Raub T J, Wishart G N, Kulanthaivel P, Staton B A, Ajamie R T, Sawada G A, Gelbert L M, Shannon H E, Sanchez-Martinez C, De Dios A (2015) Brain Exposure of Two Selective Dual CDK4 and CDK6 Inhibitors and the Antitumor Activity of CDK4 and CDK6 Inhibition in Combination with Temozolomide in an Intracranial Glioblastoma Xenograft. Drug Metab Dispos. 43:1360-71). The data presented below for Example 1 are averages from 3 animals at each dose. “Con.” refers to concentration.
Example 8 was orally dosed to male mouse from 3 mg/kg to 60 mg/kg in fed condition, and the plasma and brain concentration was determined 1 hr post-dose. The fraction unbound of the compound was determined in vitro as described previously (Zamek-Gliszczynski M J, et al., Validation of 96-well equilibrium dialysis with non-radiolabeled drug for definitive measurement of protein binding and application to clinical development of highly-bound drugs, J. Pharm. Sci. (2011) 100: 2498-2507). The ratio (Kpuu) of unbound brain concentration (Cu,brain) vs. unbound plasma concertation (Cu,plasma) was determined as described previously (Raub T J, et al., Brain Exposure of Two Selective Dual CDK4 and CDK6 Inhibitors and the Antitumor Activity of CDK4 and CDK6 Inhibition in Combination with Temozolomide in an Intracranial Glioblastoma Xenograft. Drug Metab. Dispos. (2015) 43:1360-71). The data presented below for Example 8 are averages from 3 animals at each dose.

[3] = fraction unbound in brain, read-out: fu, brain
[4] = fraction unbound in plasma, read-out: fu, plasma

Chain of human D1 receptor (P21728 whole entry): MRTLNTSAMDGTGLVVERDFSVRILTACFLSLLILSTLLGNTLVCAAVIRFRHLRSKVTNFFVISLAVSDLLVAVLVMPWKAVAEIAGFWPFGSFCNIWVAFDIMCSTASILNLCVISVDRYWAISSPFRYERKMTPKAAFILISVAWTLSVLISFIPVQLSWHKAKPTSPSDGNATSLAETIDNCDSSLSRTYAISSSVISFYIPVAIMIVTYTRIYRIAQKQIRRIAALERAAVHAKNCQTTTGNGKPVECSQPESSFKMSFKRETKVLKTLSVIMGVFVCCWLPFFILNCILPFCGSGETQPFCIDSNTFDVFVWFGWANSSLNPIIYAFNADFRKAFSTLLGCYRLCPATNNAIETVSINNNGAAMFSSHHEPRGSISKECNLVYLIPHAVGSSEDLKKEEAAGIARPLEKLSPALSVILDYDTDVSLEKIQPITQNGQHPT

SMILES | EC50 (human D1 receptor) [nM] | Emax (human D1 receptor) [%] | Basal Locomotor Activity (Total Ambulations for 60 min), mean ([1]; 1.0 mg/kg PO) | Basal Locomotor Activity (Total Ambulations for 60 min), mean ([1]; 3.0 mg/kg PO) | Basal Locomotor Activity (Total Ambulations for 60 min), mean ([1]; 6.0 mg/kg PO) | Basal Locomotor Activity (Total Ambulations for 60 min), mean ([1]; 10 mg/kg PO) | Basal Locomotor Activity (Total Ambulations for 60 min), mean ([1]; 30 mg/kg PO) | Effect on basal movement / locomotor activation (in words) [1] | fraction unbound [2, 3] | fraction unbound [2, 4] | Basal Locomotor Activity (Total Ambulations for 60 min), mean ([1]; 20 mg/kg PO) | Basal Locomotor Activity (Total Ambulations for 60 min), mean ([1]; 60 mg/kg PO)
C[C@H]1c2cccc(-c3cnn(C)c3)c2C[C@H](CO)N1C(=O)Cc1c(Cl)cccc1Cl [Example 1, 2-(2,6-dichlorophenyl)-1-((1S,3R)-3-(hydroxymethyl)-1-methyl-5-(1-methyl-1H-pyrazol-4-yl)-3,4-dihydroisoquinolin-2(1H)-yl)ethan-1-one] | 16.4 ± 3.18 | 91.4 | 410 | 490 | 1517* | 2426*** | 3568**** | increase basal movement in a dose dependent manner; also recorded: significant in vivo efficacy when orally administered at 6, 10, and 30 mg/kg PO | 0.025 | 0.027 |  | 
C[C@H]1c2cccc(-c3cn[nH]c3)c2C[C@H](CO)N1C(=O)Cc1c(Cl)cccc1Cl [Example 8, 2-(2,6-dichlorophenyl)-1-((1S,3R)-3-(hydroxymethyl)-1-methyl-5-(1H-pyrazol-4-yl)-3,4-dihydroisoquinolin-2(1H)-yl)ethan-1-one] | 13.4 | 75.9 |  | 335 |  | 753 | 3746** | increase basal movement in a dose dependent manner | 0.01 | 0.031 | 3629* | 4080 ***
